Assay results taken from US8962637B2, “Bicyclic compounds and their uses as dual c-SRC/JAK inhibitors” (Debiopharm S.A., priority 2010, dated 2015).

Key:
pStat3 [1] = assay: Quantification of pStat3 in PBMCs by flow cytometry; assay type: in vivo, mice
Protocol: Phosphorylation of Stat3 was stimulated by addition of hIL6 (10 ug/mL) for 30 min at 37° C. Blood was fixed with formaldehyde (final 2% v/v) for 10 min at 37° C.
Buffy coat (PBMCs) was separated by aspirating translucent layer using pipetteman and washed twice with PBS-1×
Pre chilled PBMC's were permeabilized by adding ice cold Methanol, while vortexing gently (final volume 90% MeOH v/v) and incubated for 30 min on ice.
Permeabilized PBMCs were washed with PBS once. PBMCs re-suspended to 2×10^6 cells in 200 μL of incubation buffer for 10 min at room temperature (RT). Primary Ab was added (1:100 dilution) and incubated 45 min at RT. Washed as before (twice) and re-suspended in fluorochrome conjugated secondary Ab (1:500 dilution) and incubated at RT in dark for 30 min. Washed and re-suspended in […] PBS.
Measured pStat3 using FACS caliber machine (BD). Unstained PBMCs was used for cytometry settings. […] Histograms (cell number V/s FL1-H) were plotted. Percentage of cells that are phosphorylated by IL6 stimulation (M2 population), and inhibition of phosphorylation by inhibitor (decrease in M2 population) are calculated on histogram by marking peaks, M1 and M2.

pStat3 [2] = assay: In-Cell-Western blot assay for pStat3 (ICW) in A431 cells; assay type: cell-based; conditions: Homo sapiens, A-431, 2 hrs, read-out: pSTAT3 inhibition
Summary of the method: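 Serum-starved (overnight) A431 cells treated with compound for 2 hrs, then fixed, permeabilized and probed with phospho-Stat3 antibody plus europium-labelled secondary. Europium signal normalized to Hoechst for cell number; IC50 calculated from normalized values.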

A431 cancer cell line = assay: Inhibition of cell growth in A431; assay type: cell-based; conditions: Homo sapiens, A-431
A549 cells = assay: Cell viability assay (XTT assay), A549; assay type: cell-based; conditions: Homo sapiens, 72 hrs
JAK2 = JAK2 (Homo sapiens (Human), UniProt O60674); assay: TR-FRET JAK2 kinase assay; assay type: biochemical; conditions: ATP 10 μM
Chain of JAK2 (O60674 whole entry): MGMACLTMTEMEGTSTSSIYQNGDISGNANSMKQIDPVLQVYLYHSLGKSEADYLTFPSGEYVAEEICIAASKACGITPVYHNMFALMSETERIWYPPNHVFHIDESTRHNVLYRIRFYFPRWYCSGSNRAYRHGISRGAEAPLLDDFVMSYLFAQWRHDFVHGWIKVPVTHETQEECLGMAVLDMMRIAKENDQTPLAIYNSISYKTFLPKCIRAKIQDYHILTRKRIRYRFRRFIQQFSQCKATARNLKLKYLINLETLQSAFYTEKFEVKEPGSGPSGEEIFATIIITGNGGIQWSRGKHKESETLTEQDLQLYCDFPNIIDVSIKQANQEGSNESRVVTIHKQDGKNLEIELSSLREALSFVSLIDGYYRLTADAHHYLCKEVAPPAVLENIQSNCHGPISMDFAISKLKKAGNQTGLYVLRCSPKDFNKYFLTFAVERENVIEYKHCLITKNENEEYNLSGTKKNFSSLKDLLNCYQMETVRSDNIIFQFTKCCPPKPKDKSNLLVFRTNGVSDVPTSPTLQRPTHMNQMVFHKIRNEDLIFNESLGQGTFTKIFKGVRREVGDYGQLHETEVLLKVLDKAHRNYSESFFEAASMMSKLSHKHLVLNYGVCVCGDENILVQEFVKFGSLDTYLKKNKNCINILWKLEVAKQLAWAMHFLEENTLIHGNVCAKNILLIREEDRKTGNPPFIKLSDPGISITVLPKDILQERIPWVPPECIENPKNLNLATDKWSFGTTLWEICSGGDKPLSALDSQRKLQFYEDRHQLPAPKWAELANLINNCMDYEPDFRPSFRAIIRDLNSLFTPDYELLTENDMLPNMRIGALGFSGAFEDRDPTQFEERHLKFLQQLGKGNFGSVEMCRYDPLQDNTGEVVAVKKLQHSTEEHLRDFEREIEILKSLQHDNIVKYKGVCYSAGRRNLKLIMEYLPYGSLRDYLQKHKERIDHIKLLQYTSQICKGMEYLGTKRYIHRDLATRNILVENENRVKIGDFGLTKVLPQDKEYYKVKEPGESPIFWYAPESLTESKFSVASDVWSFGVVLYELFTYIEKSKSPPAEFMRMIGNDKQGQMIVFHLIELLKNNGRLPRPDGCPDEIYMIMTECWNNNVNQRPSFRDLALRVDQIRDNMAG
Protocol: Compounds were screened in the TR-FRET assay for JAK2 and c-Src kinase inhibition. Ultra light poly GT (Perkin Elmer) was used as the substrate for JAK2 and c-Src with the ATP concentration of 10 μM and 50 μM, respectively. […] The dose-response curve fitting was done using GraphPad Prism software.

Volume distribution = conditions: in vivo
Text: Table 8 provides some volume distribution values of the compounds of the present invention.

[3] = MTD / tolerance in athymic mice; conditions: once-daily 14 days treatment in athymic mice
[4] = mouse, in vivo
B16F10 tumor cells = assay: B16F10 survival model; assay type: in vivo, C57B16 mice
Protocol: IV injection of 0.1×10^6 B16F10 tumor cells in the tail vain of 60 male C57B16 mice. Randomization of mice one day after tumor cell injection into 4 groups of 15 mice. Out of 15, 6 mice were sacrificed on 14th day for counting metastatic foci on lungs. Rest 9 mice were dosed continuously till morbidity/mortality for recording survival.
Plasma collected for drug concentration estimation and whole blood was collected to isolate PBMCs to determine pStat3 inhibition by flow cytometry as PD readout.

SMILES | % pSTAT3 inhibition in PBMCs (MTD study) (pStat3 [1]; at 100 MPK) [% at] | IC50 (pStat3 [2]) [nM] | EC50 (A431 cancer cell line) [nM] | EC50 (A549 cells) [nM] | IC50 (JAK2) [nM] | MTD [4] [MPK] | Survival advantage (B16F10 tumor cells; Efficacy - B16F10 at 100 MPK) | other results
Cc1ccc(NC(=O)c2cccc(C(F)(F)F)c2)cc1N1CCc2nc(Nc3ccc(N4CCN(C)CC4)cc3)ncc2C1=O [Compound 45, N-(4-Methyl-3-{2-[4-(4-methyl-piperazin-1-yl)-phenylamino]-5-oxo-7,8-dihydro-5H-pyrido[4,3-d]pyrimidin-6-yl}-phenyl)-3-trifluoromethyl-benzamide] | 84 | 220 | 1400 | 1070 | 15 | 250 | 9 days | PBMCs % pStat3 inhibition (pStat3 [1]; A431 Xenograft model, 100 MPK): 56.32%; PBMCs % pStat3 inhibition (pStat3 [1]; A549 Xenograft model, 10 MPK): 55.61%; PBMCs % pStat3 inhibition (pStat3 [1]; A549 Xenograft model, 30 MPK): 60.66%; PBMCs % pStat3 inhibition (pStat3 [1]; A549 Xenograft model, 100 MPK): 65.28%; PBMCs % pStat3 inhibition (pStat3 [1]; A549 Xenograft model, 150 MPK): 76.56%; PBMCs % pStat3 inhibition (pStat3 [1]; B16F10 model, 30 MPK): 66%; PBMCs % pStat3 inhibition (pStat3 [1]; B16F10 model, 100 MPK): 73%; Vd (Volume distribution): 5.89 L/kg; toxicity effects on major organs [3]: does not cause pronounced toxicity effects on major organs; good tolerance ([4]; athymic, 14 days): up to 250 MPK; Survival advantage (B16F10 tumor cells; B16F10 survival model, dosing Q1Dx14): 37.5%
Cc1ccc(NC(=O)c2cccc(C(F)(F)F)c2)cc1N1CCc2nc(Nc3ccc(C(=O)NC4CC4)nc3)ncc2C1 [Compound 117, 5-{6-[2-Methyl-5-(3-trifluoromethyl-benzoylamino)-phenyl]-5,6,7,8-tetrahydro-pyrido[4,3-d]pyrimidin-2-ylamino}-pyridine-2-carboxylic acid cyclopropylamide] | 83 | 340 | 330 | 25 | 18 | 100 | 1 day days | –
CNC(=O)c1ccc(Nc2ncc3c(n2)CCN(c2cc(NC(=O)c4cc(C(F)(F)F)ccn4)ccc2Cl)C3)cc1 [Compound 179, 4-Trifluoromethyl-pyridine-2-carboxylic acid {4-chloro-3-[2-(4-methylcarbamoyl-phenylamino)-7,8-dihydro-5H-pyrido[4,3-d]pyrimidin-6-yl]-phenyl}-amide] | – | 280 | – | – | 6.4 | 30 | 4 days | % pSTAT3 inhibition in PBMCs (MTD study) (pStat3 [1]; at 30 MPK): 65% at; inhibition at 0.1 µM (JAK2; read-out: JAK2 % inhibition at 100 nM, 100 nM): 81%; inhibition at 1 µM (JAK2; read-out: JAK2 % inhibition at 1 μM, 1 μM): 92%
